Assay results published in patent US20240239790A1, “7-Morpholino-1,6-Naphthyridin-5-yl Derivatives and Pharmaceutical Compositions Thereof Useful as DNA-PK Inhibitor” (adMare Therapeutics Society, priority 2021, published 2024).
Where two headings read alike, the source gives them in different places.

Legend:
[1] = Hepatocyte Stability Assay, human hepatocytes; assay type: in vitro ADME; conditions: for hepatocyte CLint at 1 uM: both sexes, cryopreserved hepatocytes, pH 7.3, human hepatocytes 0.7 million cells per mL, 1 uM compound; for Hepatocyte Stability Human % rem. 120 min: human hepatocytes
Experimental: Cryopreserved mouse hepatocytes were obtained from a pool of 10 or more male CD-1 mice. Cryopreserved human hepatocytes were obtained from a pool of 10 or more donors of mixed gender. Final hepatocyte density was 0.7 million viable cells per mL and test compound concentration was 1 uM with a maximum of 0.01% DMSO. Cryopreserved hepatocytes were thawed, washed, and resuspended in Krebs-Heinslet buffer (pH 7.3). The reaction was initiated by adding the test compound into cell suspension and incubated for 0, […], 1, 1.5, and 2 h, respectively, at 37° C./5% C02. The reaction was stopped by adding acetonitrile into the incubation mixture. Samples were then mixed, transferred completely to another 96-well plate, and centrifuged. Supernatants were used for HPLC-MS/MS analysis. […] Peak areas corresponding to the test compound were recorded.

DNA-PK = target: T1, DNA-PK (Homo sapiens, UniProt P78527); experiment: DNA-PK Assay for Biochemical Enzymatic Inhibition (ADP Glo Kinase assay); conditions: DNA-PK enzyme, Table 1
T1 construct: purchased Invitrogen PR9107A
In short: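 Human DNA-PK (25 ng) preincubated 15 min with compounds (ten three-fold dilutions) in HEPES pH 7.5, MgCl2, KCl, calf thymus DNA buffer, then substrate 434.4 μM and ATP 64.4 μM (final) for 60 min at room temperature. ADP-Glo luminescence; percent inhibition fitted by four-parameter regression for IC50.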

[2] = system: pDNA-PK induction in HCT116 tumour spheroids; experiment: Multicellular tumour spheroid + radiation, pDNA-PK (ser2056) inhibition, immunohistochemical endpoint, HCT116; assay type: cell-based; conditions: Homo sapiens, 20 Gy, 20% O2
In short: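 HCT116 spheroids (~0.5 mm) in MEM/10% FBS, 20% O2, 37° C., pre-incubated 1 h with compound (10 or 5 μM down to 3.5 nM), irradiated 20 Gy, then 2 h further with compound. Cryosections immunostained for pDNA-PK ser2056; EC50 is concentration halving radiation-induced pDNA-PK.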

[3] = HCT-116, Spheroid, Cell Line: HCT115 (so in the source), 2 hours following radiation, Example 7, read-out: EC50, Immunohistochemical endpoint, pDNA-PK inhibition
[4] = HCT-116, 2 hours following radiation, Example 9 Study 2, read-out: Spheroid Cell line: HCT116 Immunohistochemical endpoint pDNA-PK inhibition EC50
[5] = HCT-116, 2 h, spheroids, Example 8, read-out: Cell line: HCT116 Immunohistochemical endpoint pDNA-PK inhibition EC50

SMILES | hepatocyte CLint at 1 uM [1] [µL/min/1e6 cells] | Hepatocyte Stability Human % rem. 120 min [1] | IC50 (DNA-PK) [nM] | EC50 [2, 3] [nM] | EC50 [2, 4] [nM] | EC50 [2, 5] [nM]
O=C(COc1cnc(N[C@H]2CC[C@@H](Oc3nc(N4CCOCC4)cc4ncccc34)CC2)nc1)N1CCOCC1 [Compound 61, 1-Morpholino-2-((2-(((1s,4s)-4-((7-morpholino-1,6-naphthyridin-5-yl)oxy)cyclohexyl)amino)pyrimidin-5-yl)oxy)ethan-1-one] | < 8.2 | G (% remaining = 50-75%) | 0.5 to 1 | 10 to 500 | 10 to 500 | 
CS(=O)(=O)c1cnc2cc(N3CCOCC3)nc(O[C@H]3CC[C@@H](NC(=O)c4ncco4)CC3)c2c1 [Compound 204c, N-((1s,4s)-4-((3-(methylsulfonyl)-7-morpholino-1,6-naphthyridin-5-yl)oxy)cyclohexyl)oxazole-2-carboxamide] | < 8.2 | H (% remaining = 75-100%) | 1 to 10 | 1000 to 10000 | 1000 to 10000 | 
CN(C)C(=O)COc1cnc(N[C@H]2CC[C@@H](Oc3nc(N4CCOCC4)cc4ncccc34)CC2)nc1 [Compound 54, N,N-Dimethyl-2-((2-(((1s,4s)-4-((7-morpholino-1,6-naphthyridin-5-yl)oxy)cyclohexyl)amino)pyrimidin-5-yl)oxy)acetamide] | < 8.2 | F (% remaining = 25-50%) | 0.5 to 1 | 10 to 500 | 10 to 500 | 10 to 500
CN1CCN(C(=O)COc2cnc(N[C@H]3CC[C@@H](Oc4nc(N5CCOCC5)cc5ncccc45)CC3)nc2)CC1 [Compound 62, 1-(4-Methylpiperazin-1-yl)-2-((2-(((1s,4s)-4-((7-morpholino-1,6-naphthyridin-5-yl)oxy)cyclohexyl)amino)pyrimidin-5-yl)oxy)ethan-1-one] | > 8.2 | F (% remaining = 25-50%) | < 0.5 | 500 to 1000 | 500 to 1000 | 
O=C(NO)c1cnc2cc(N3CCOCC3)nc(O[C@H]3CC[C@@H](n4ccnc4)CC3)c2c1 [Compound 172, 5-(((1s,4s)-4-(1H-imidazol-1-yl)cyclohexyl)oxy)-N-hydroxy-7-morpholino-1,6-naphthyridine-3-carboxamide] |  |  | < 0.5 | 1000 to 10000 | 1000 to 10000 | 1000 to 10000
O=C(O)c1cnc2cc(N3CCOCC3)nc(O[C@H]3CC[C@@H](n4ccnc4)CC3)c2c1 [Compound 165, 5-(((1s,4s)-4-(1H-imidazol-1-yl)cyclohexyl)oxy)-7-morpholino-1,6-naphthyridine-3-carboxylic acid] |  |  | < 0.5 | 10000 to 100000 | 10000 to 100000 | 10000 to 100000
CS(=O)(=O)NC(=O)c1cnc2cc(N3CCOCC3)nc(O[C@H]3CC[C@@H](n4ccnc4)CC3)c2c1 [Compound 175, 5-(((1s,4s)-4-(1H-imidazol-1-yl)cyclohexyl)oxy)-N-(methylsulfonyl)-7-morpholino-1,6-naphthyridine-3-carboxamide] |  |  | 0.5 to 1 | 10000 to 100000 | 10000 to 100000 | 10000 to 100000
CN(C)CCOc1cnc(N[C@H]2CC[C@@H](Oc3nc(N4CCOCC4)cc4ncccc34)CC2)nc1 [Compound 64, 5-(2-(Dimethylamino)ethoxy)-N-((1s,4s)-4-((7-morpholino-1,6-naphthyridin-5-yl)oxy)cyclohexyl)pyrimidin-2-amine] |  |  | < 0.5 | 10 to 500 | 10 to 500 | 10 to 500

Continued, values first:

hepatocyte CLint at 1 uM [1] [µL/min/1e6 cells] | Hepatocyte Stability Human % rem. 120 min [1] | IC50 (DNA-PK) [nM] | EC50 [2, 3] [nM] | EC50 [2, 4] [nM] | EC50 [2, 5] [nM] | SMILES
< 8.2 | G (% remaining = 50-75%) | < 0.5 | 10 to 500 |  |  | CN(C)C(=O)Cn1ccc(C(=O)N[C@H]2CC[C@@H](Oc3nc(N4CCOCC4)cc4ncccc34)CC2)c1 [Compound 141, 1-(2-(dimethylamino)-2-oxoethyl)-N-((1s,4s)-4-((7-morpholino-1,6-naphthyridin-5-yl)oxy)cyclohexyl)-1H-pyrrole-3-carboxamide]
< 8.2 | H (% remaining = 75-100%) | < 0.5 | 10 to 500 | 10 to 500 |  | CN(C)C(=O)Cn1ccc2nc(N[C@H]3CC[C@@H](Oc4nc(N5CCOCC5)cc5ncccc45)CC3)ncc21 [Compound 86, N,N-Dimethyl-2-(2-(((1s,4s)-4-((7-morpholino-1,6-naphthyridin-5-yl)oxy)cyclohexyl)amino)-5H-pyrrolo[3,2-d]pyrimidin-5-yl)acetamide]
> 8.2 | F (% remaining = 25-50%) | < 0.5 | 500 to 1000 | 500 to 1000 |  | c1cnc2cc(N3CCOCC3)nc(O[C@H]3CC[C@@H](Nc4ncc(OCCN5CCOCC5)cn4)CC3)c2c1 [Compound 68, N-((1s,4s)-4-((7-Morpholino-1,6-naphthyridin-5-yl)oxy)cyclohexyl)-5-(2-morpholinoethoxy)pyrimidin-2-amine]
< 8.2 | G (% remaining = 50-75%) | < 0.5 | 10 to 500 | 10 to 500 |  | CN(C)C(=O)Cn1c(=O)n(C)c2nc(N[C@H]3CC[C@@H](Oc4nc(N5CCOCC5)cc5ncccc45)CC3)ncc21 [Compound 102, N,N-Dimethyl-2-(9-methyl-2-(((1s,4s)-4-((7-morpholino-1,6-naphthyridin-5-yl)oxy)cyclohexyl)amino)-8-oxo-8,9-dihydro-7H-purin-7-yl)acetamide]
> 8.2 | F (% remaining = 25-50%) | < 0.5 | 500 to 1000 | 500 to 1000 |  | Cn1c(=O)n(C2CCOCC2)c2nc(N[C@H]3CC[C@@H](Oc4nc(N5CCOCC5)cc5ncccc45)CC3)ncc21 [Compound 96, 7-Methyl-2-(((1s,4s)-4-((7-morpholino-1,6-naphthyridin-5-yl)oxy)cyclohexyl)amino)-9-(tetrahydro-2H-pyran-4-yl)-7,9-dihydro-8H-purin-8-one]
> 8.2 | E (% remaining = 0-25%) | < 0.5 | 10 to 500 | 10 to 500 |  | Cn1c(=O)[nH]c2cnc(N[C@H]3CC[C@@H](Oc4nc(N5CCOCC5)cc5ncccc45)CC3)nc21 [Compound 100, 9-Methyl-2-(((1s,4s)-4-((7-morpholino-1,6-naphthyridin-5-yl)oxy)cyclohexyl)amino)-7,9-dihydro-8H-purin-8-one]
< 8.2 | F (% remaining = 25-50%) | < 0.5 | 1000 to 10000 | 1000 to 10000 |  | NCCOc1cnc(N[C@H]2CC[C@@H](Oc3nc(N4CCOCC4)cc4ncccc34)CC2)nc1 [Compound 65, 5-(2-Aminoethoxy)-N-((1s,4s)-4-((7-morpholino-1,6-naphthyridin-5-yl)oxy)cyclohexyl)pyrimidin-2-amine]
> 8.2 | F (% remaining = 25-50%) | < 0.5 | 10 to 500 | 10 to 500 |  | O=C(Cn1c(=O)n(C2CCOCC2)c2nc(N[C@H]3CC[C@@H](Oc4nc(N5CCOCC5)cc5ncccc45)CC3)ncc21)N1CCOCC1 [Compound 98, 2-(((1s,4s)-4-((7-Morpholino-1,6-naphthyridin-5-yl)oxy)cyclohexyl)amino)-7-(2-morpholino-2-oxoethyl)-9-(tetrahydro-2H-pyran-4-yl)-7,9-dihydro-8H-purin-8-one]
